Drawing on ChEMBL document CHEMBL3272075, “Direct measurement of octanol-water partition coefficients by high-pressure liquid chromatography” (J Med Chem, 1976), this text covers logP for 11 molecules.

A short description of data set [1]: physchem. As to conditions: octanol/water.
Description: Partition coefficient, log P of the compound by HPLC analysis
Data set [2] can be described thus: physchem. As to conditions: octanol/water. The source holds these as a separate data set.
Description: Partition coefficient, log P of the compound by shake-flask technique

A word on the logP: it is the decadic logarithm of the partition coefficient of the neutral form, usually between octanol and water. A lower logP goes with lower lipophilicity.

Structures are written as SMILES.

As to `Nc1ccncc1` [DALFAMPRIDINE], the logP in “physchem [1]” amounted to 0.26; in the data set “physchem [2]”, 0.28.

As to `Cc1cccnc1` [3-METHYLPYRIDINE], the logP in the data set “physchem [1]” came to 1.2. Consider `c1ccc2nc3ccccc3nc2c1` [PHENAZINE], for which the results for the logP in “physchem [1]” and in “physchem [2]” were 2.81 and 2.85, respectively. `Brc1cnc2ccccc2c1` showed a logP in “physchem [1]” of 3.03. `Cc1ccnc2ccccc12` came in with a logP in the data set “physchem [1]” of 2.52.

In the case of `c1ccc2ncccc2c1` [QUINOLINE], the figures for the log partition coefficient (logP) in “physchem [1]” and in “physchem [2]” were 2.04 and 2.03, respectively. The molecule `COc1ccccc1` [ANISOLE] registered a logP in the data set “physchem [1]” of 2.1.

With `CC(=O)Nc1ccc(OCC(O)CNC(C)C)cc1` (stereo not drawn) [PRACTOLOL], the logP worked out at 0.78 in “physchem [1]” and 0.79 in “physchem [2]”. For `CC(=O)Nc1ccccc1` [ACETANILIDE] the same measures were 1.14 and 1.16. With `c1ccc2nc3ccccc3cc2c1` [ACRIDINE], the logP worked out at 3.39 in “physchem [1]” and 3.4 in “physchem [2]”. As for `c1ccc2cnccc2c1` [ISOQUINOLINE], the logP in “physchem [1]” worked out at 2.09; in the data set “physchem [2]” it was 2.08.
